“And” between values parts separate entries of the source, which are not always exact repeats. Equal values may be shown once. Where a name gives a salt, the structure may show the parent alone. Read-outs that look alike come from different tables or passages of the source.
Tested on: β2AR
Conditions: for competition binding curve vs isoproterenol (Extended Data Figure 3M), Fit / competition binding curve vs isoproterenol (Extended Data Figure 3L), Fit: fitted curve; for competition binding curve vs isoproterenol (Extended Data Figure 3L), Fit / competition binding curve vs isoproterenol (Extended Data Figure 3L): Wild-Type + Gs-Peptide
Method: Reactions were equilibrated, washed, and measured following the same procedure listed above for the radioligand antagonist-binding assay. […] Weighted averages of these IC50 values were used for comparison purposes and inhibition constant (Ki) calculations. […] Binding assays were performed in technical duplicates. Three biological replicates were collected with different membrane preparations for each replicate.

CC(C)NCC(O)c1ccc(O)c(O)c1 (stereo not drawn) [Isoproterenol, isoproterenol (+)-bitartrate salt]
competition binding curve vs isoproterenol (Extended Data Figure 3M), Fit (Sensor + Gs-peptide, Isoproterenol 1.00E-03 M): 1.12 | competition binding curve vs isoproterenol (Extended Data Figure 3M) (Sensor + Gs-peptide, Isoproterenol 1.00E-03 M, replicates 1-3 and Average): 0.73 and -0.00169 | competition binding curve vs isoproterenol (Extended Data Figure 3M), Fit (Sensor + Gs-peptide, Isoproterenol 1.00E-04 M): 1.39 | competition binding curve vs isoproterenol (Extended Data Figure 3M) (Sensor + Gs-peptide, Isoproterenol 1.00E-04 M, replicates 1-3 and Average): 1.06 and 1.58 and 0.34 and 1.27 | competition binding curve vs isoproterenol (Extended Data Figure 3M), Fit (Sensor + Gs-peptide, Isoproterenol 1.00E-05 M): 3.99 | competition binding curve vs isoproterenol (Extended Data Figure 3M) (Sensor + Gs-peptide, Isoproterenol 1.00E-05 M, replicates 1-3 and Average): 5.22 and 6.17 and 4.29 and 5.19 | competition binding curve vs isoproterenol (Extended Data Figure 3M), Fit (Sensor + Gs-peptide, Isoproterenol 1.00E-06 M): 22.44 | competition binding curve vs isoproterenol (Extended Data Figure 3M) (Sensor + Gs-peptide, Isoproterenol 1.00E-06 M, replicates 1-3 and Average): 22.22 and 23.42 and 21.91 and 21.33 | competition binding curve vs isoproterenol (Extended Data Figure 3M), Fit (Sensor + Gs-peptide, Isoproterenol 1.00E-07 M): 61.20 | competition binding curve vs isoproterenol (Extended Data Figure 3M) (Sensor + Gs-peptide, Isoproterenol 1.00E-07 M, replicates 1-3 and Average): 61.19 and 63.45 and 61.62 and 58.48 | competition binding curve vs isoproterenol (Extended Data Figure 3M), Fit (Sensor + Gs-peptide, Isoproterenol 1.00E-08 M): 85.17 | competition binding curve vs isoproterenol (Extended Data Figure 3M) (Sensor + Gs-peptide, Isoproterenol 1.00E-08 M, replicates 1-3 and Average): 85.29 and 86.69 and 86.58 and 82.61 | competition binding curve vs isoproterenol (Extended Data Figure 3M), Fit (Sensor + Gs-peptide, Isoproterenol 1.00E-09 M): 97.00 | competition binding curve vs isoproterenol (Extended Data Figure 3M) (Sensor + Gs-peptide, Isoproterenol 1.00E-09 M, replicates 1-3 and Average): 96.71 and 101.87 and 95.55 and 92.70 | competition binding curve vs isoproterenol (Extended Data Figure 3M), Fit (Sensor + Gs-peptide, Isoproterenol 1.00E-10 M): 99.03 | competition binding curve vs isoproterenol (Extended Data Figure 3M) (Sensor + Gs-peptide, Isoproterenol 1.00E-10 M, replicates 1-3 and Average): 97.96 and 100.63 and 97.15 and 96.10 | competition binding curve vs isoproterenol (Extended Data Figure 3M), Fit (Sensor, Isoproterenol 1.00E-03 M): 0.48 | competition binding curve vs isoproterenol (Extended Data Figure 3M) (Sensor, Isoproterenol 1.00E-03 M, replicates 1-3 and Average): 0.69 and 0.84 and -0.72 and 0.27 | competition binding curve vs isoproterenol (Extended Data Figure 3M) (Sensor, Isoproterenol 1.00E-04 M, replicates 1-3 and Average): 1.32 and 1.71 and -0.50 and 0.84 | competition binding curve vs isoproterenol (Extended Data Figure 3M), Fit (Sensor, Isoproterenol 1.00E-05 M): 5.70 | competition binding curve vs isoproterenol (Extended Data Figure 3M) (Sensor, Isoproterenol 1.00E-05 M, replicates 1-3 and Average): 7.08 and 7.24 and 5.39 and 6.57 | competition binding curve vs isoproterenol (Extended Data Figure 3M), Fit (Sensor, Isoproterenol 1.00E-06 M): 30.01 | competition binding curve vs isoproterenol (Extended Data Figure 3M) (Sensor, Isoproterenol 1.00E-06 M, replicates 1-3 and Average): 30.57 and 29.08 and 29.48 and 29.71 | competition binding curve vs isoproterenol (Extended Data Figure 3M), Fit (Sensor, Isoproterenol 1.00E-07 M): 74.45 | competition binding curve vs isoproterenol (Extended Data Figure 3M) (Sensor, Isoproterenol 1.00E-07 M, replicates 1-3 and Average): 73.61 and 76.73 and 72.17 and 74.17 | competition binding curve vs isoproterenol (Extended Data Figure 3M), Fit (Sensor, Isoproterenol 1.00E-08 M): 96.90 | competition binding curve vs isoproterenol (Extended Data Figure 3M) (Sensor, Isoproterenol 1.00E-08 M, replicates 1-3 and Average): 94.98 and 101.48 and 95.93 and 97.46 | competition binding curve vs isoproterenol (Extended Data Figure 3M), Fit (Sensor, Isoproterenol 1.00E-09 M): 100.28 | competition binding curve vs isoproterenol (Extended Data Figure 3M) (Sensor, Isoproterenol 1.00E-09 M, replicates 1-3 and Average): 98.04 and 104.41 and 99.80 and 100.75 | competition binding curve vs isoproterenol (Extended Data Figure 3M), Fit (Sensor, Isoproterenol 1.00E-10 M): 100.63 | competition binding curve vs isoproterenol (Extended Data Figure 3M) (Sensor, Isoproterenol 1.00E-10 M, replicates 1-3 and Average): 100.71 and 99.53 and 99.04 and 99.76 | competition binding curve vs isoproterenol (Extended Data Figure 3M), Fit (Sensor, Isoproterenol 5.00E-06 M): 10.04 | competition binding curve vs isoproterenol (Extended Data Figure 3M) (Sensor, Isoproterenol 5.00E-06 M, replicates 2-3 and Average): 10.13 and 9.02 and 9.58 | competition binding curve vs isoproterenol (Extended Data Figure 3M), Fit (Sensor, Isoproterenol 5.00E-07 M): 42.59 | competition binding curve vs isoproterenol (Extended Data Figure 3M) (Sensor, Isoproterenol 5.00E-07 M, replicates 2-3 and Average): 41.48 and 44.45 and 42.96 | competition binding curve vs isoproterenol (Extended Data Figure 3L), Fit (Isoproterenol 1.00E-03 M): 0.69 | competition binding curve vs isoproterenol (Extended Data Figure 3L) (Isoproterenol 1.00E-03 M, replicates 1-3 and Average): 0.0116 and 0.0442 and 0.27 and -0.28 | competition binding curve vs isoproterenol (Extended Data Figure 3L), Fit (Isoproterenol 1.00E-04 M): 1.04 | competition binding curve vs isoproterenol (Extended Data Figure 3L) (Isoproterenol 1.00E-04 M, replicates 1-3 and Average): 0.88 and 0.89 and 0.84 and 0.90 | competition binding curve vs isoproterenol (Extended Data Figure 3L), Fit (Isoproterenol 1.00E-05 M): 4.37 | competition binding curve vs isoproterenol (Extended Data Figure 3L) (Isoproterenol 1.00E-05 M, replicates 1-3 and Average): 5.43 and 5.70 and 4.92 and 5.68

Reference: publication PMC10033409, “Autoregulation of GPCR signalling through the third intracellular loop” (Nature, 2023)
